Measurements as given in US10253015B2, “Pyridinyl quinolinone derivatives as mutant-isocitrate dehydrogenase inhibitors” (FORMA TM2, Inc., priority 2014, dated 2019).
Where two headings read alike, the source gives them in different places.

Columns and labels:
[1] = molecular target: IDH1-R132H recombinant protein (Homo sapiens (Human), UniProt O75874, R132H); experiment: IDH1-R132H enzymatic assay; format: biochemical
Experimental: (§1) Assays were performed in a 384-well black plate. […] After the plate was centrifuged briefly, an aliquot of 10 μL of 2 mM α-ketoglutarate and 20 μM NADPH solution prepared in assay buffer was then added to each well and the reaction was maintained at 25° C. for 45 minutes. An aliquot of 10 μL of diaphorase solution (0.15 U/mL diaphorase and 30 μM Resazurin in assay buffer) was added to each well. […] The IC50 of a given compound was calculated by fitting the dose response curve of inhibition of NADPH consumption at a given concentration with the four parameter logistic equation.

[2] = molecular target: IDH1-R132C recombinant protein (Homo sapiens (Human), UniProt O75874, R132C); experiment: IDH1-R132C enzymatic assay; format: biochemical
Experimental: as §1

[3] = system: HCT116 isogenic IDH1-R132H mutant cells; experiment: Cellular 2-HG assay using HCT116 mutant IDH1 cells (R132H); format: cell-based; settings: Homo sapiens, HCT-116; cellular 2-HG inhibition, 24 hours, RapidFire mass spectrometry; read-out: HCT IDH1 R132H Range IC50
Experimental: (§2) HCT116 isogenic IDH1-R132H and IDH1-R132C mutant cells were cultured in growth media (McCoy's 5 A, 10% fetal bovine serum, 1× antibiotic-antimycotic solution and 0.3 mg/mL G418) in 5% CO2 in an incubator at 37° C. To prepare the assay, cells were trypsinized and resuspended in assay media (McCoy's 5 A with no L-glutamine, 10% fetal bovine serum, 1× antibiotic-antimycotic solution and 0.3 mg/mL G418). An aliquot of 10,000 cells/100 μL was transferred to each well of a clear 96-well tissue culture plate. The cells were incubated in 5% CO2 at 37° C. in an incubator overnight to allow for proper cell attachment. An aliquot of 50 μL of compound containing assay media were then added to each well and the assay plate was kept in 5% CO2 at 37° C. in an incubator for 24 hours. The media was then removed from each well and 150 μL of a methanol/water mixture (80/20 v/v) was added to each well. The plates were kept at −80° C. freezer overnight to allow for complete cell lysis. An aliquot of 125 μL of extracted supernatant was analyzed by RapidFire high-throughout-mass spectrometry (Agilent) to determine the cellular 2-HG level. The IC50 of a given compound was calculated by fitting the dose response curve of cellular 2-HG inhibition at a given concentration with the four parameter logistic equation

[4] = system: HCT116 isogenic IDH1-R132C mutant cells; experiment: Cellular 2-HG assay using HCT116 mutant IDH1 cells (R132C); format: cell-based; settings: Homo sapiens, HCT-116; cellular 2-HG inhibition, 24 hours, RapidFire mass spectrometry; read-out: HCT IDH1 R132C Range IC50
Experimental: as §2

[5] = inhibition of NADPH consumption, diaphorase/resazurin readout, read-out: Enzyme IDH1 R132H Range IC50
[6] = inhibition of NADPH consumption, diaphorase/resazurin readout, read-out: Enzyme IDH1 R132C Range IC50

Chain of IDH1-R132C recombinant protein (O75874 whole entry R132C): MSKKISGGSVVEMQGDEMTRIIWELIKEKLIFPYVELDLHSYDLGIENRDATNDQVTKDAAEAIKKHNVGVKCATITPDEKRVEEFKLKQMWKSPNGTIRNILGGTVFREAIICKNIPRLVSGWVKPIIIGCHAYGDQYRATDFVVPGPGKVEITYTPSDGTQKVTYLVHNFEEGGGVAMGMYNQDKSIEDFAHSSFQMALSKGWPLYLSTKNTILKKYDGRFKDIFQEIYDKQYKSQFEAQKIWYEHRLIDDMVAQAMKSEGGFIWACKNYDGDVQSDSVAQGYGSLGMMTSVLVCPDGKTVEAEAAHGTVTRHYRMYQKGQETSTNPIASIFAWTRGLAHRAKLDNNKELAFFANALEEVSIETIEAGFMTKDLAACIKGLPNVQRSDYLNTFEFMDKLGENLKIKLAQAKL
Chain of IDH1-R132H recombinant protein (O75874 whole entry R132H): as the sequence (O75874 whole entry R132C) above, with C132H counted along it

Row | Structure (SMILES) | IC50 [1, 5] | IC50 [2, 6] | IC50 [3] | IC50 [4] | IC50 [1] | IC50 [2]
1 | Cc1nc(N[C@@H](C)c2cc3cc(Cl)ccc3[nH]c2=O)ccc1C#N [Compound I-4, (S)-6-(1-(6-chloro-2-oxo-1,2-dihydroquinolin-3-yl)ethylamino)-2-methyl nicotinonitrile] | < 100 nM | 100 to 1000 nM | 100 to 1000 nM | 100 to 1000 nM | – | –
2 | Cc1cc(N[C@@H](C)c2cc3cc(Cl)ccc3[nH]c2=O)ncc1C#N [Compound I-5, (S)-6-((1-(6-chloro-2-oxo-1,2-dihydroquinolin-3-yl)ethyl)amino)-4-methyl nicotinonitrile] | < 100 nM | 100 to 1000 nM | 100 to 1000 nM | 100 to 1000 nM | – | –
3 | COc1nc(N[C@@H](C)c2cc3cc(Cl)ccc3[nH]c2=O)ccc1C#N [Compound I-6, 6-{[(1S)-1-(6-chloro-2-oxo-1,2-dihydroquinolin-3-yl)ethyl]amino}-2-methoxypyridine-3-carbonitrile] | < 100 nM | 100 to 1000 nM | 100 to 1000 nM | 10 to 100 nM | – | –
4 | COc1nc(C#N)ccc1N[C@@H](C)c1cc2cc(Cl)ccc2[nH]c1=O [Compound I-7, 5-{[(1S)-1-(6-chloro-2-oxo-1,2-dihydroquinolin-3-yl)ethyl]amino}-6-methoxypyridine-2-carbonitrile] | < 100 nM | 1000 to 10000 nM | 100 to 1000 nM | 100 to 1000 nM | – | –
5 | Cc1nc(NC(C)c2cc3cc(Cl)ccc3[nH]c2=O)ccc1C#N (centres unmarked) [Compound I-9, 6-{[1-(6-chloro-2-oxo-1,2-dihydroquinolin-3-yl)ethyl]amino}-2-methylpyridine-3-carbonitrile] | 100 to 1000 nM | 100 to 1000 nM | 100 to 1000 nM | > 1000 nM | – | –
6 | C[C@H](Nc1nccc(N2CCOC2=O)c1F)c1cc2cc(Cl)ccc2[nH]c1=O [Compound I-14, 6-chloro-3-[(1S)-1-{[3-fluoro-4-(2-oxo-1,3-oxazolidin-3-yl)pyridin-2-yl]amino}ethyl]-1,2-dihydroquinolin-2-one] | < 100 nM | 100 to 1000 nM | 100 to 1000 nM | 100 to 1000 nM | – | –
7 | Cc1nc(NC(C)c2cc3cc(Cl)c(F)cc3[nH]c2=O)ccc1C#N (centres unmarked) [Compound I-21, 6-{[1-(6-chloro-7-fluoro-2-oxo-1,2-dihydroquinolin-3-yl)ethyl]amino}-2-methylpyridine-3-carbonitrile] | < 100 nM | 100 to 1000 nM | 100 to 1000 nM | 100 to 1000 nM | – | –
8 | Cc1nc(N[C@@H](C)c2cc3cc(Cl)c(F)cc3[nH]c2=O)ccc1C#N [Compound I-22, 6-{[(1S)-1-(6-chloro-7-fluoro-2-oxo-1,2-dihydroquinolin-3-yl)ethyl]amino}-2-methylpyridine-3-carbonitrile] | < 100 nM | 100 to 1000 nM | < 10 nM | 100 to 1000 nM | – | –
9 | COc1cc2[nH]c(=O)c(C(C)Nc3ccc(C#N)c(C)n3)cc2cc1Cl (centres unmarked) [Compound I-24, 6-{[1-(6-chloro-7-methoxy-2-oxo-1,2-dihydroquinolin-3-yl)ethyl]amino}-2-methylpyridine-3-carbonitrile] | – | – | – | 100 to 1000 nM | – | –
10 | COc1cc2[nH]c(=O)c([C@H](C)Nc3cc(OC)c(C#N)cn3)cc2cc1Cl [Compound I-25, 6-{[(1S)-1-(6-chloro-7-methoxy-2-oxo-1,2-dihydroquinolin-3-yl)ethyl]amino}-4-methoxypyridine-3-carbonitrile] | – | – | 10 to 100 nM | 100 to 1000 nM | < 100 nM | < 100 nM
11 | COc1cc2[nH]c(=O)c([C@H](C)Nc3ccc(C#N)c(OC)n3)cc2cc1Cl [Compound I-26, 6-{[(1S)-1-(6-chloro-7-methoxy-2-oxo-1,2-dihydroquinolin-3-yl)ethyl]amino}-2-methoxypyridine-3-carbonitrile] | < 100 nM | < 100 nM | < 10 nM | 10 to 100 nM | – | –
12 | COc1cc2[nH]c(=O)c([C@H](C)Nc3cc(C)c(C#N)cn3)cc2cc1Cl [Compound I-27, 6-{[(1S)-1-(6-chloro-7-methoxy-2-oxo-1,2-dihydroquinolin-3-yl)ethyl]amino}-4-methylpyridine-3-carbonitrile] | < 100 nM | < 100 nM | 10 to 100 nM | 100 to 1000 nM | – | –
13 | Cc1nc(N[C@@H](C)c2cc3cc(Cl)c(OCc4ccccn4)cc3[nH]c2=O)ccc1C#N [Compound I-28, 6-{[(1S)-1-[6-chloro-2-oxo-7-(pyridin-2-ylmethoxy)-1,2-dihydroquinolin-3-yl]ethyl]amino}-2-methylpyridine-3-carbonitrile] | < 100 nM | < 100 nM | 10 to 100 nM | < 10 nM | – | –
14 | Cc1nc(NC(C)c2cc3cc(Cl)c(OCc4ccccn4)cc3[nH]c2=O)ccc1C#N (centres unmarked) [Compound I-29, 6-({1-[6-chloro-2-oxo-7-(pyridin-2-ylmethoxy)-1,2-dihydroquinolin-3-yl]ethyl}amino)-2-methylpyridine-3-carbonitrile] | < 100 nM | – | 10 to 100 nM | 10 to 100 nM | – | –
15 | Cc1nc(NC(C)c2cc3cc(Cl)c(OCC4CC(F)(F)C4)cc3[nH]c2=O)ccc1C#N (centres unmarked) [Compound I-30, 6-[(1-{6-chloro-7-[(3,3-difluorocyclobutyl)methoxy]-2-oxo-1,2-dihydroquinolin-3-yl}ethyl)amino]-2-methylpyridine-3-carbonitrile] | < 100 nM | 100 to 1000 nM | 10 to 100 nM | 10 to 100 nM | – | –
16 | Cc1c(-c2ccnc(N[C@@H](C)c3cc4cc(Cl)ccc4[nH]c3=O)c2)cnn1C [Compound I-40, 6-chloro-3-[(1S)-1-{[4-(1,5-dimethyl-1H-pyrazol-4-yl)pyridin-2-yl]amino}ethyl]-1,2-dihydroquinolin-2-one] | 100 to 1000 nM | 100 to 1000 nM | 100 to 1000 nM | 100 to 1000 nM | – | –
17 | Cc1nc(NCc2cc3cc(Cl)ccc3[nH]c2=O)ccc1C#N [Compound I-58, 6-{[(6-chloro-2-oxo-1,2-dihydroquinolin-3-yl)methyl]amino}-2-methylpyridine-3-carbonitrile] | < 100 nM | 100 to 1000 nM | 100 to 1000 nM | > 1000 nM | – | –
18 | COc1cc2[nH]c(=O)c(CNc3ccc(C#N)c(C)n3)cc2cc1Cl [Compound I-83, 6-{[(6-chloro-7-methoxy-2-oxo-1,2-dihydroquinolin-3-yl)methyl]amino}-2-methylpyridine-3-carbonitrile] | < 100 nM | > 10000 nM | > 1000 nM | > 1000 nM | – | –
